Measurements from patent US20240350458A1, “14-3-3 PROTEIN MODULATORS AS ANTITUMOR AGENTS” (priority 2021, published 2024).

Test system: human lymphoma cell line TMD8
Assay: Lymphoma xenograft in Nod-Scid mice
Assay type: in vivo
Conditions: 100 mg/kg oral gavage once daily, five times per week
Protocol: FIG. 6 reports ADME-TOX profiling of compounds FC91, FC85, and FC86 as explained in example 7 FIG. 7 reports the inhibition of the compound FC86 on tumor growth in xenograft models of lymphoma (TMD8 engrafted in NOD-Scid mice); vehicle group (blue line), n=9 mice; FC86 treated group (red line), n=9 mice (Example 8). Tumor volume expressed in cubic mm plus SEM (Student t-test); p<0.01.
To this purpose, the compound was administered by oral gavage to Nod-Scid mice engrafted with the human lymphoma cell line TMD8 (15 millions of cells in 100 uL PBS/mouse). […] Body conditions were not affected by the treatments.

Structure (SMILES): Cc1ccc(S(=O)(=O)Nc2ccc3c(c2)/C(=C/c2cccs2)C(=O)N3)cc1 [FC86, N-[(3Z)-2-oxo-3-(thiophene-2-ylmethylidene)-2,3-dihydro-1H-indol-5-yl]-4-methylbenzenesulfonamide]
- body conditions: not affected
- tumor size vs vehicle at the end of the study: two times smaller
- tumor growth inhibition (p<0.01): significantly inhibit tumor growth
